The results in this text go back to patent publication US11753399B2, “Therapeutic compounds” (Gilead Sciences, Inc., priority 2018, dated 2023).

One series deals with HIV-IIIb. Description: Test A: Antiviral Assay in MT4 Cells. The format is cell-based, HIV-1. Particulars: inhibition of virus-induced cell killing, MT-4 cells, HIV-IIIb, 5 days, values normalized to 100%; for inhibition at 0.01 µM / inhibition at 0.2 µM: Human immunodeficiency virus 1, MT4, 120 h; for inhibition at 0.01 µM: read-out: % inhibition at 0.01 μM; for inhibition at 0.2 µM: read-out: % inhibition at 0.20 μM. The method in brief:
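MT-4 cells infected with HIV-IIIb at m.o.i. 0.003 for 1 hour, then added at 2000 cells per well to diluted compound. Incubated 5 days at 37° C. Cell viability read as CellTiter-Glo chemiluminescence after 10 min lysis at room temperature.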

Another series deals with MT-4 cells. As to the kind of experiment: Test B: Cytotoxicity Assay (same protocol as Test A, uninfected cells). The format is cell-based. Conditions: uninfected MT-4 cells, 5 days, CellTiter-Glo.
Assay in series [1]: as above
The format is cell-based. Conditions: human, uninfected MT-4 cells, CellTiter-Glo.

Setting [2] is: from dose response curve at 0.01 μM (10 nM).
Where [3] appears, read: from dose response curve at 0.20 μM (200 nM).

For `CC(C)(O)c1nnc(Nc2nn(CC(F)F)c3c(-c4ccc(C#CC(C)(C)S(=O)(=O)C5CC5)nc4[C@H](Cc4cc(F)cc(F)c4)NC(=O)Cn4nc(C(F)F)c5c4C(F)(F)[C@@H]4C[C@H]54)ccc(Cl)c23)o1` [Example 24], in the series with HIV-IIIb (setting [2]), the inhibition at 0.01 µM was determined as 100%. For the same compound, the inhibition at 0.2 µM in the series on HIV-IIIb (setting [3]) was determined as 100%. Besides, in the series on MT-4 cells, the CC50 worked out at 9.07 µM.
Regarding `CC(C)(O)c1nnc(Nc2nn(CC(F)F)c3c(-c4ccc(C#CC(C)(C)S(=O)(=O)C5CC5)nc4[C@H](Cc4cc(F)cc(F)c4)NC(=O)Cn4nc(C(F)F)c5c4C(F)(F)[C@@H]4C[C@H]54)ccc(Cl)c23)o1` [Example 25], in the series on HIV-IIIb (setting [2]), the “% inhibition at 0.01 μM” value stood at 100%. The “% inhibition at 0.20 μM” value in the series on HIV-IIIb (setting [3]) was determined as 100%. The CC50 in the series on MT-4 cells was > 57.1 µM.
Consider `Cn1nc(NS(C)(=O)=O)c2c(Cl)ccc(-c3ccc(C#CC(C)(C)S(=O)(=O)C4CC4)nc3[C@H](Cc3cc(F)cc(F)c3)NC(=O)Cn3cc(C(F)(F)F)cn3)c21` [Example 65], for which the inhibition at 0.01 µM with HIV-IIIb (setting [2]) was determined as 27%. The inhibition at 0.2 µM in the series with HIV-IIIb (setting [3]) came to 100%. The CC50 at 5 days in series [1] is > 50 µM.
In the case of `Cn1nc(NS(C)(=O)=O)c2c(Cl)ccc(-c3ccc(C#CC(C)(C)S(=O)(=O)C4CC4)nc3[C@H](Cc3cc(F)cc(F)c3)NC(=O)Cc3ncc[nH]3)c21` [Example 66], the inhibition at 0.01 µM with HIV-IIIb (setting [2]) worked out at 61%. Moreover, the inhibition at 0.2 µM with HIV-IIIb (setting [3]) was found to be 97%. This compound also displayed a 50% cytotoxic concentration (CC50) at 5 days in series [1] of 11.7 µM.
Taken in the same sequence, the figures for `CCS(=O)(=O)Nc1nn(CC(F)(F)F)c2c(-c3ccc(C#CC(C)(C)S(=O)(=O)C4CC4)nc3[C@H](Cc3cc(F)cc(F)c3)NC(=O)Cn3nc(C(F)(F)F)c4c3C(F)(F)[C@@H]3C[C@H]43)ccc(Cl)c12` [Example 67] were 13%, 0% and > 50 µM.
On to `CC(C)(C#Cc1ccc(-c2ccc(Cl)c3c(NS(C)(=O)=O)nn(CC(F)(F)F)c23)c([C@H](Cc2cc(F)cc(F)c2)NC(=O)Cn2nc(C(F)(F)F)c3c2C(F)(F)[C@@H]2C[C@H]32)n1)S(=O)(=O)C1CC1` [Example 68], for which, in the series on HIV-IIIb (setting [2]), the inhibition at 0.01 µM stood at 100%. Besides, the inhibition at 0.2 µM with HIV-IIIb (setting [3]) was found to be 100%. Besides, the CC50 at 5 days in series [1] was > 50 µM.
For the compound `CC(C)(C#Cc1ccc(-c2ccc(Cl)c3c(NS(=O)(=O)C4CC4)nn(C4COC4)c23)c([C@H](Cc2cc(F)cc(F)c2)NC(=O)Cn2nc(C(F)(F)F)c3c2C(F)(F)[C@@H]2C[C@H]32)n1)S(=O)(=O)C1CC1` [Example 69], in the series on HIV-IIIb (setting [2]), the inhibition at 0.01 µM is 92%. Further, in the series on HIV-IIIb (setting [3]), the inhibition at 0.2 µM was 92%. Moreover, the CC50 at 5 days in series [1] was > 50 µM.
